# Data reported in ChEMBL document CHEMBL1201862, “PubChem BioAssay data set” (2004).
# Activity calls are given as the source filed them.
# What was measured:
# [1] = target: 26S proteasome non-ATPase regulatory subunit 14 (Homo sapiens, UniProt O00487); experiment: inhibition of proteasome subunit RPN11 – biochemical, fluorescence polarization, uHTS hits, confirmation (AID 602368); format: functional
# [2] = target: Induced myeloid leukemia cell differentiation protein Mcl-1 (Homo sapiens, UniProt Q07820); format: functional
# [3] = protection from phage-mediated lysis, alamar blue read-out – E. coli UTI89, K1F phage, bacterial capsule biogenesis inhibitors (AID 488966); format: functional
# Large T antigen = Large T antigen (Simian virus 40, UniProt P03070); format: functional, Betapolyomavirus macacae;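 note: Confirmatory-stage PubChem screen for compounds that inhibit SV40 T antigen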
# [4] = target: 72 kDa type IV collagenase (Homo sapiens, UniProt P08253); experiment: Dose Response validation of uHTS RPN11 inhibitor hits using a MMP-2 Fluorescence assay.; format: functional
# Genome polyprotein = Genome polyprotein (Hepatitis C virus, UniProt Q2Q167); experiment: disruption of hepatitis C core self-association – biochemical, TR-FRET, dose response (AID 2159); parameters: species or system Hepacivirus hominis;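 note: blocks dimerization of HCV core protein measured by TR-FRET between tagged core106 pairs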
# Prothrombin = Prothrombin (Bos taurus, UniProt P00735); experiment: thrombin protease inhibitors – biochemical, fluorescence polarization, uHTS hits, dose response (AID 602369); format: functional
# [5] = target: T1, Orexin/Hypocretin receptor type 1 (Homo sapiens, UniProt O43613); experiment: Homogeneous Time Resolved Fluorescence (HTRF)-based cell-based high throughput dose response assay for antagonists of the orexin 1 receptor (OX1R; HCRTR1). [Related pubchem assays (depositor defined):AID434989, AID435008, AID463079, AID485270, AID492963, AID492964, AID492965, AID493232, AID504717, AID504718]; format: functional
# Orexin receptor type 2 [6] = target: T2, Orexin receptor type 2 (Homo sapiens, UniProt O43614); experiment: Counterscreen assay for antagonists of the orexin 1 receptor (OX1R; HCRTR1): Homogeneous Time Resolved Fluorescence (HTRF)-based cell-based dose response assay for antagonists of the orexin 2 receptor (OX2R; HCRTR2), run by assay provider.; format: functional
# [7] = target: T1, Orexin/Hypocretin receptor type 1; experiment: Fluorescence-based cell-based high throughput dose response assay for antagonists of the orexin 1 receptor (OX1R; HCRTR1). [Related pubchem assays (depositor defined):AID434989, AID435008, AID463079, AID485270, AID492963, AID492964, AID492965, AID493232, AID504717, AID504718]; format: functional
# Orexin receptor type 2 [8] = target: T2, Orexin receptor type 2; experiment: Counterscreen assay for antagonists of the orexin 1 receptor (OX1R; HCRTR1): Fluorescence-based cell-based dose response assay for antagonists of the orexin 2 receptor (OX2R; HCRTR2), run by assay provider.; format: functional
# [9] = Luminescence Cell-Based Dose Retest to Confirm Inhibitors of Cancer Stem Cells. [Related pubchem assays (depositor defined):AID2717, AID2721]; format: functional; details: Homo sapiens
# [10] = (§1) Counterscreen for antagonists of the orexin 1 receptor (OX1R; HCRTR1): Fluorescence-based cell-based high throughput dose response assay to identify antagonists of the parental CHO cell line. [Related pubchem assays (depositor defined):AID434989, AID435008, AID463079, AID485270, AID492963, AID492964, AID492965, AID493232, AID504699, AID504701]; format: functional
# CHO-K1 = experiment: as §1, with “Homogeneous time resolved fluorescence (HTRF)-based” for “Fluorescence-based”, “cell-based” for “cell-based high throughput”, “CHO-K1” for “CHO”; format: functional; details: Cricetulus griseus;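 note: potency for inhibition of ATP-stimulated IP1 production as antagonists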
# [11] = target: Melanin-concentrating hormone receptor 1 (Homo sapiens, UniProt Q99705); experiment: Late-stage fluorescence-based counterscreen for antagonists of the G-protein coupled receptor 7 (GPR7): cell-based dose response assay to identify antagonists of the melanin-concentrating hormone receptor 1 (MCHR1) Set 5.; format: functional
# [12] = target: Neuropeptides B/W receptor type 1 (Homo sapiens, UniProt P48145); experiment: human NPBW1 receptor blockade, IC50 – cell-based, fluorescence, dose response, set 5, late-stage follow-up (AID 588566); format: functional
# [13] = target: Rho-associated protein kinase 2 (Homo sapiens, UniProt O75116); format: functional
# [14] = target: Mitogen-activated protein kinase 13 (Homo sapiens, UniProt O15264); format: functional
# [15] = Luminescence-based dose response cell-based high throughput screening assay for cytotoxic compounds using the IEC-6 intestinal epithelial cell line. [Related pubchem assays: 1858 (Summary AID.), 1825 (Counterscreen.), 1907 (Confirmation screen.)]; format: functional
# [16] = activation of miR-122 Renilla sensor silencing – cell-based, Huh7 psiCHECK-miR122, Renilla luciferase, cherry-picked, dose response (AID 651956); format: functional;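 note: huh7 hepatoma cells stably carrying a psiCHECK-2 miR-122 sensor plasmid; renilla luciferase signal reporting endogenous miR-122 activity after 48 h compound exposure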
# [17] = reduction of Shn3 3'UTR-driven luciferase in osteoblasts – cell-based, Clone20 osteoblasts, firefly luciferase, cherry-picked, dose response (AID 624132); format: functional;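 note: firefly luciferase luminescence from reporter carrying the Shn3 3'UTR in osteoblasts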
# [18] = non-specific 3'UTR reporter inhibition in Clone20-Shn3RL – cell-based, Renilla luciferase, cherry-picked, counter-screen for Shn3 inhibitor project, dose response (AID 624133); format: functional
# [19] = loss of viability in HepG2 cells – cell-based, CellTiter-Glo, cherry-picked, cytotoxicity control for Shn3 inhibitor project, dose response (AID 624134); format: functional
# [20] = luciferase reporter signal suppression in cells – H4 neuroglioma cells, luminescence, dose response (AID 1990); format: functional, cell-based
# [21] = DRD fibroblast viability loss – cell-based, non-viral oncogenic, luminescence, dose response (AID 1934); format: functional; details: Homo sapiens
# BJ [22] = experiment: cells; format: functional, cell-based; details: Homo sapiens
# [23] = general mammalian cell viability loss – activator set, cherry-pick, cytotoxicity control for miR-122 modulator project, dose response (AID 720690); format: functional, cell-based;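 note: HEK293T human cells scored for general mammalian cytotoxicity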
# BJ [24] = experiment: BJ-TERT-LT-ST fibroblast viability loss – cell-based, RAS-independent, luminescence, dose response (AID 1935); format: functional; details: Homo sapiens;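 note: BJ fibroblasts immortalized with TERT plus LT and ST oncogenes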
# BJ [25] = experiment: growth inhibition of engineered Ras-driven BJ cells – cell-based, alamar blue fluorescence, cherrypicked samples, dose response (AID 2631); format: functional; details: Homo sapiens;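 note: confirmatory dose-response assay in RAS-dependent BJ fibroblasts engineered with TERT, LT and ST, with cytotoxicity read by fluorescence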
# [26] = reduced cellular PGC1a acetyl-lysine signal – cell-based, cherry-picked samples, dose response (AID 720514); format: functional;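 note: potency may reflect raised or lowered acetylation signal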
# [27] = target: T3, High affinity choline transporter 1 (Homo sapiens, UniProt Q9GZV3); experiment: human choline transporter potentiators, potency – cell-based, 10-point CRC, membrane potential dye, dose response (AID 602376); format: functional
# T3 sequence (Q9GZV3 whole entry): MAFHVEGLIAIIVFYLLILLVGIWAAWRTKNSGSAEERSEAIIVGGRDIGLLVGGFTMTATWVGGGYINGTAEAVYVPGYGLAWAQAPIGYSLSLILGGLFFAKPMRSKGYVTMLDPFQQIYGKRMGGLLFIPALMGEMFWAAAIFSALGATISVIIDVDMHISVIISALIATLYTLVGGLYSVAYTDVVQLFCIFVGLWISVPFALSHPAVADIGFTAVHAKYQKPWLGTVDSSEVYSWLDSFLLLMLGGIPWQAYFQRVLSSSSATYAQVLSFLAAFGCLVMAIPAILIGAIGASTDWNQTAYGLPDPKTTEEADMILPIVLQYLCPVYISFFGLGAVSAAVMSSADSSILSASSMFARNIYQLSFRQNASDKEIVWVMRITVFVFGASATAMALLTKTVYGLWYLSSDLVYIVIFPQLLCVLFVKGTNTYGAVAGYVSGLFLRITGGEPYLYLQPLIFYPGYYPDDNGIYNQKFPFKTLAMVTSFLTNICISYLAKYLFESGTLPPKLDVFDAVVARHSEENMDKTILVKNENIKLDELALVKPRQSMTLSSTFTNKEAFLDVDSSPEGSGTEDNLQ
# INS1 = experiment: INS-1E survival protection against cytokine death – cell-based, luminescence, retest, dose response (AID 449756); format: functional; details: Rattus norvegicus;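 note: cell death triggered by IL-1 beta plus TNF-alpha plus IFN-gamma mixture; protective hits raise ATP signal compared with cytokine alone wells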
# [28] = alpha-synuclein stem-loop luciferase translation blockers – H4 neuroglioma cells, luminescence, confirmation (AID 1988); format: functional, cell-based
# [29] = general mammalian cell viability loss – inhibitor set, cherry-pick, set 2, cytotoxicity control for miR-122 modulator project, dose response (AID 720697); format: functional, cell-based
# [30] = Luminescence Cell-Based Dose Response HTS to Identify Inhibitors of 5'UTR Stem-Loop Driven Prion Protein mRNA Translation in H4 Neuroglioblastoma Cells. [Related pubchem assays: 1827 (Project Summary), 1813 (Primary HTS)]; format: functional
# BJ [31] = experiment: BJ-TERT fibroblast viability loss – cell-based, RAS-independent, luminescence, dose response (AID 1933); format: functional; details: Homo sapiens
# T1 sequence (O43613 whole entry): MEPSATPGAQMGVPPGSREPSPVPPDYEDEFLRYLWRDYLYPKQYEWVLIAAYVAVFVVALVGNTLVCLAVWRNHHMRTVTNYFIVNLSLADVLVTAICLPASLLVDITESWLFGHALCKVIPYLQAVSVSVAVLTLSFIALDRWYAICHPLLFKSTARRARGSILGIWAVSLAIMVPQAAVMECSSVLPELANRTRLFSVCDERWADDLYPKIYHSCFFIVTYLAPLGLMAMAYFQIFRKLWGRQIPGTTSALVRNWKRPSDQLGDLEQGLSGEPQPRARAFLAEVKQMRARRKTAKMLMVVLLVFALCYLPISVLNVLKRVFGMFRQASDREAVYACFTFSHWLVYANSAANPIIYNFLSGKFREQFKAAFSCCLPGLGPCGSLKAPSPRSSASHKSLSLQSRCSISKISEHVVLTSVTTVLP
# T2 sequence (O43614 whole entry): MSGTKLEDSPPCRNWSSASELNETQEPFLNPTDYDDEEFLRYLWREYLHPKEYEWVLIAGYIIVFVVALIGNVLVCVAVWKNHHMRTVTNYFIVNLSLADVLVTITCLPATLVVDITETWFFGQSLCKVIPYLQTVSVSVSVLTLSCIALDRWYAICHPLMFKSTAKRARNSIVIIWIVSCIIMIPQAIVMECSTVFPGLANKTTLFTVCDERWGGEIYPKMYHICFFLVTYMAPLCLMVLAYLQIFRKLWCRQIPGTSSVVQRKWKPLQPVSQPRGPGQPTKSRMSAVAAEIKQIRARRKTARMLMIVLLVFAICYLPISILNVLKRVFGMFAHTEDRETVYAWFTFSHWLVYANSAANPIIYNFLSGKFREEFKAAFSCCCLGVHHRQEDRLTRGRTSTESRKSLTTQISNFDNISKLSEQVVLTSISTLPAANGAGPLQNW
# Mitogen-activated protein kinase 13, sequence (O15264 whole entry): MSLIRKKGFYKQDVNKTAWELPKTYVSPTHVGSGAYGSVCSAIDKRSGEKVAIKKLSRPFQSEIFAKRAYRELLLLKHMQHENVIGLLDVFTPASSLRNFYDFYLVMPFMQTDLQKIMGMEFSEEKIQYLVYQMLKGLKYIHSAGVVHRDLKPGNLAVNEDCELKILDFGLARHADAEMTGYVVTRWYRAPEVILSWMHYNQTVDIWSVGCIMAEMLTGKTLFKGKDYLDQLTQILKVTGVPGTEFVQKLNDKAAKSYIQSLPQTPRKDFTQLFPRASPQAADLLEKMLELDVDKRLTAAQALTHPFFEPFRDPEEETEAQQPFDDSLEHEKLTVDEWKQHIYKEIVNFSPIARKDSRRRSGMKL
# Rho-associated protein kinase 2, sequence (O75116 whole entry): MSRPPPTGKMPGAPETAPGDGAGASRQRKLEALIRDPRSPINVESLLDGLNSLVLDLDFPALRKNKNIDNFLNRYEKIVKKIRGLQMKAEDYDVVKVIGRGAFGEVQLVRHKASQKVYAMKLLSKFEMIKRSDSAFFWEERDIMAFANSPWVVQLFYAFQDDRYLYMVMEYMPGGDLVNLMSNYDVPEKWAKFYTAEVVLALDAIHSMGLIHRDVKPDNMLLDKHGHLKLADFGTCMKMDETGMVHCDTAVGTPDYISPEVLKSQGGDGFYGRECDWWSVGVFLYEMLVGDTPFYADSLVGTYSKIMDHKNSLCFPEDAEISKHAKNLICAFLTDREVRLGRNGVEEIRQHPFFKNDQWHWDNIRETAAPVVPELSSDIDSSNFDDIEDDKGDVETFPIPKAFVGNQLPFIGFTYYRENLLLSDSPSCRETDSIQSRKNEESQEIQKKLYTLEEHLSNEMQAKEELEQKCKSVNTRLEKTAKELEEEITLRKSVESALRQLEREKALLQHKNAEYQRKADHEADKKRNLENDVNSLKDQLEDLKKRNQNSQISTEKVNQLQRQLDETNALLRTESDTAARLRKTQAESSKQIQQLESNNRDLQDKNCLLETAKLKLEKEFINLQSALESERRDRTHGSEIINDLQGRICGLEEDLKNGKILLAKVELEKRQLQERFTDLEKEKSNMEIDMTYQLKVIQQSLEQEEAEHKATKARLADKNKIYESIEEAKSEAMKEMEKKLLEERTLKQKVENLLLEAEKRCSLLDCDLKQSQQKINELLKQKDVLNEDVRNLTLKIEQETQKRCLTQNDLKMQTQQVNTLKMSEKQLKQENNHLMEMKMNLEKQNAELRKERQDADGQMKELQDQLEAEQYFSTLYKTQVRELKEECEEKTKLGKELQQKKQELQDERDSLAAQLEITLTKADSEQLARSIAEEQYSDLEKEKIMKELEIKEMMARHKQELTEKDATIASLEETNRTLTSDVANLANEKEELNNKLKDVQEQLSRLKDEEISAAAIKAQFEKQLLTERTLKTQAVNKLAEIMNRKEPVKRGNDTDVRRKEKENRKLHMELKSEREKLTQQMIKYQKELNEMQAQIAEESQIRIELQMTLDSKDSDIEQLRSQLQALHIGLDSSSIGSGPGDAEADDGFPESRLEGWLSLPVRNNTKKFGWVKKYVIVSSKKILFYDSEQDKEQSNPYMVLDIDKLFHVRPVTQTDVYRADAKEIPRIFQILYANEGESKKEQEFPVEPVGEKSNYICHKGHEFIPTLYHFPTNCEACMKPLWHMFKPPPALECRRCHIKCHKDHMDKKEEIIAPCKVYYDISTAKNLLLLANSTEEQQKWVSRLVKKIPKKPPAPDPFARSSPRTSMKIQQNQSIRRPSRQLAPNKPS
# Melanin-concentrating hormone receptor 1, sequence (Q99705 whole entry): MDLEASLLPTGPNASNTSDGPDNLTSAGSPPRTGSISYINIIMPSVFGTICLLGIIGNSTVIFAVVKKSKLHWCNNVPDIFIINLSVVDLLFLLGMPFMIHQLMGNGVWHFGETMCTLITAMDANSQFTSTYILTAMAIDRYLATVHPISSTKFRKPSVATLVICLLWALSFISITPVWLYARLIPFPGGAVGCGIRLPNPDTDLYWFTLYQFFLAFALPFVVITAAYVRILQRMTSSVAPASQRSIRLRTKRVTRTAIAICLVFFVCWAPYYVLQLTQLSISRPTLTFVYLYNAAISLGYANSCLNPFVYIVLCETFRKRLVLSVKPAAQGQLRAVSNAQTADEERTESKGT
# Induced myeloid leukemia cell differentiation protein Mcl-1, sequence (Q07820 whole entry): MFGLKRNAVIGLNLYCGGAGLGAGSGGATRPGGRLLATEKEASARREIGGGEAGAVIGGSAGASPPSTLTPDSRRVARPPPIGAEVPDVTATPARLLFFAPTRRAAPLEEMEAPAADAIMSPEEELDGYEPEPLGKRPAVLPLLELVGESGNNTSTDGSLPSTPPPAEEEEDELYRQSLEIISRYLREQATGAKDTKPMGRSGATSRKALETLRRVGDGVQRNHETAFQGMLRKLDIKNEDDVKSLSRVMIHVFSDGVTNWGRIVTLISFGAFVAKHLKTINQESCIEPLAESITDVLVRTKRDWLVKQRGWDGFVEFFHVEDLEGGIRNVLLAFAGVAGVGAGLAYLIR
# Neuropeptides B/W receptor type 1, sequence (P48145 whole entry): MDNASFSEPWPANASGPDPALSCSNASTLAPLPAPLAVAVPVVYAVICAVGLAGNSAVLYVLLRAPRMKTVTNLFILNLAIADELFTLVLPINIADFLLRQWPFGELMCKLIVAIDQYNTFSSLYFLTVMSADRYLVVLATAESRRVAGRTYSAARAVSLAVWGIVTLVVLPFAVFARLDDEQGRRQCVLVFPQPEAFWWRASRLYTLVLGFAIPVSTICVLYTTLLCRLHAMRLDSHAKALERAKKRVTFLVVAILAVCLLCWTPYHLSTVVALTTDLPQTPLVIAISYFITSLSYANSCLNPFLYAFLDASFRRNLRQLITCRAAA
# 72 kDa type IV collagenase, sequence (P08253 whole entry): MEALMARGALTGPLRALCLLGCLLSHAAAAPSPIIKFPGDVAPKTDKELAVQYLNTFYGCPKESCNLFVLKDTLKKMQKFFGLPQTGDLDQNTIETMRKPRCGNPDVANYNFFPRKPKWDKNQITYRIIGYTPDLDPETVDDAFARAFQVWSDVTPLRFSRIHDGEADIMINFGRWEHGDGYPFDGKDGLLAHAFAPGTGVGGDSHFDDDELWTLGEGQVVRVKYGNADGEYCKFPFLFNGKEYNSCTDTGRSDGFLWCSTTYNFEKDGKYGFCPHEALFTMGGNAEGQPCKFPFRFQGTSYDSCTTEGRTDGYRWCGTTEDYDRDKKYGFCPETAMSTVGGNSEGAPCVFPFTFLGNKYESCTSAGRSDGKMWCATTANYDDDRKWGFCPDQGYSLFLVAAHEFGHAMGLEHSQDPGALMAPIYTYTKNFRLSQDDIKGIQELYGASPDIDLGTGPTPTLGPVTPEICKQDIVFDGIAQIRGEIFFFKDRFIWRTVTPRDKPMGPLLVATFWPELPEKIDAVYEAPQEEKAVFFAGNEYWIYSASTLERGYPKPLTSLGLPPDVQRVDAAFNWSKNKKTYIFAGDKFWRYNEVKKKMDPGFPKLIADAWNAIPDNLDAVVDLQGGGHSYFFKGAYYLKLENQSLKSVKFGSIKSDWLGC
# Large T antigen, sequence (P03070 whole entry): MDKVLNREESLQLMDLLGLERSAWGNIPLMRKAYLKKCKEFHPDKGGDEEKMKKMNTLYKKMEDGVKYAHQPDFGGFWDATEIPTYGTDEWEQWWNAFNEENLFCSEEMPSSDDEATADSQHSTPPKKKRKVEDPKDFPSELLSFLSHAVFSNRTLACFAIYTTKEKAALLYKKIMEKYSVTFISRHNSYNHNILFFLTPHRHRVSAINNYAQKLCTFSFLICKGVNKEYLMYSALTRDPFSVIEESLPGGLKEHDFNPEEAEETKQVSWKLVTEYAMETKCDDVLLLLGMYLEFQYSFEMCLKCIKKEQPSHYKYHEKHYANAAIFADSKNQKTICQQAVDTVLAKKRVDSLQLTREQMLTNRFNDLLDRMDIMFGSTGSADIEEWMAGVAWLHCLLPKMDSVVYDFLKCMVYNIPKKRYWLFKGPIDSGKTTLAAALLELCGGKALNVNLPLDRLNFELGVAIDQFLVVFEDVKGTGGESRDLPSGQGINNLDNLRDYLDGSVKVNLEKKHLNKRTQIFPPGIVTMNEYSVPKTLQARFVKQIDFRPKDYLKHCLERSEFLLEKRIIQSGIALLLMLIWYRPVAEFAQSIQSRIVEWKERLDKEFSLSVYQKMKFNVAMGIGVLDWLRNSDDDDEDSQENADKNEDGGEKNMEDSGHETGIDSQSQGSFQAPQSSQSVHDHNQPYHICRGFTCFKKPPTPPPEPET
structure (smiles),measurement,setting,value
CS(=O)(=O)c1ccc2c(c1)SC1=NC(=O)/C(=C/c3ccco3)C(=N)N12,IC50,[1],14.4 µM (active)
same,IC50,[2],2.84 µM (active)
same,IC50,[3],> 150 µM (active)
same,IC50,Large T antigen,> 100 µM (active)
same,IC50,[4],21.2 µM (active)
same,IC50,Genome polyprotein,> 49.8 µM (not active)
same,IC50,Prothrombin,21.6 µM (active)
C=CCn1c2ccccc2c(=O)c2cc(C#Cc3cc(OC)cc(OC)c3)ccc21,IC50,[5],1.19 µM (active)
same,IC50,Orexin receptor type 2 [6],> 50 µM (inactive)
same,IC50,[7],7.69 µM (active)
same,IC50,Orexin receptor type 2 [8],11 µM (inactive)
same,AC50,[9],1.94 µM (active)
same,IC50,[10],> 49.8 µM (inactive)
same,IC50,CHO-K1,> 66.2 µM (inactive)
O=c1c(Oc2ccc(C(F)(F)F)cc2)c(Cl)cnn1Cc1cccc2ccccc12,IC50,[11],> 20 µM (inactive)
same,IC50,[12],> 20 µM (inactive)
O=C(NC(CO)Cc1ccccc1)c1ccc(-c2ccncc2)cc1 (stereo unspecified),Ki,[13],0.0398 µM (active)
same,Ki,[14],> 7.94 µM (inactive)
Cc1ccccc1OCC(O)CNC1CCC(NCC(O)COc2ccccc2C)CC1 (stereo unspecified),IC50,[15],2.61 µM (active)
same,AC50,[16],10.4 µM (active)
same,AC50,[17],4.5 µM (active)
same,AC50,[18],11.8 µM (active)
same,AC50,[19],1.89 µM (active)
same,EC50,[20],> 120 µM (not active)
same,EC50,[21],3.77 µM (active)
same,EC50,BJ [22],5.55 µM (active)
same,AC50,[23],9.9 µM (active)
same,EC50,BJ [24],2.8 µM (inconclusive)
same,EC50,BJ [25],0.582 µM (inconclusive)
same,AC50,[26],6.68 µM (active)
same,EC50,[27],19.3 µM (active)
same,AC50,INS1,5.79 µM (active)
same,EC50,[28],8.49 µM (active)
same,AC50,[29],6.41 µM (active)
same,EC50,[30],8.66 µM (active)
same,EC50,BJ [31],2.62 µM (inconclusive)
